The values that follow come from patent US8575211B2, “Synergistic combination of analgesic compounds” (Biocodex, priority 2008, dated 2013).

Where a name gives a salt, the structure may show the parent alone. Read-outs that look alike come from different tables or passages of the source.

As a reminder, the ED50 is the dose that gives a 50% effect, or the effect in half of the subjects.

Assay [1] relates to abdominal cramps induced in mice by acetic acid. Briefly: abdominal cramps induced in mice by intraperitoneal acetic acid, products by the subcutaneous route. The class given is in vivo. Particulars: for ED50: Mus musculus, product alone, subcutaneous, 30 min before acetic acid i.p., read-out: ED50 (dose producing 50% reduction in the number of cramps). The method, then:
The analgesic effect of a nefopam-ibuprofen combination was studied in the model of abdominal cramps induced in mice by the intraperitoneal administration of acetic acid. This model of pain induced by a chemical substance corresponds to acute, visceral, inflammatory pain. Male CD1 mice (C. River breed) weighing from 25 to 30 grams are used after an acclimatization of at least 7 days in the animal facility (t°=22±2; hygrometry=50±20%; food […]-darkness: […])). On the day of the experiment, the non-fasting mice are weighed, marked and divided at random into groups of 10. The acetic acid solution (Sigma) is prepared at 0.6% (0.1 ml/10 g) i.e. 60 mg of acetic acid in 10 ml of NaCl at 0.9%. At t=0, the mouse receives the product under study or the carrier liquid by the subcutaneous route (0.1 ml/10 g). At t=30 minutes, the acetic acid is injected by the intraperitoneal route (0.1 ml/10 g). A count is taken of the number of abdominal cramps from 5 to 20 minutes after the injection of acetic acid. Clear abdominal cramps characterized by stretching of the hind paws and/or hollowing of the flanks with writhing are regarded as positive. Nefopam hydrochloride (Biocodex, lot 38) (referred to hereinafter simply as nefopam) is dissolved in distilled water or in NaCl at 0.9%. The ibuprofen (Sigma, ref 1-4883) is suspended in Tween 80 at 1%. The test used is a variance analysis based on 3 groups and a Student's t test for 2 groups. The treated group(s) that differ(s) from the control group is (are) then determined. The effective doses for 50% antinociceptive effect (ED50) are calculated using the PharmToolsPro program (version 1.1.27, […] Group Inc.) in accordance with the Tallarida (2000) method Drugs synergism and dose-effect data analysis CRC Press). At least 10 mice are used for each dose, and at least 3 doses are used to determine the dose-response curve. The dose that produces 50% antinociceptive effect (50% reduction in the number of cramps) is calculated by a standard linear regression analysis of the dose-response curve. The interaction is evaluated by an isobolographic analysis of the co-administration of a combination of doses at a fixed ratio according to Tallarida (2000) op. cit., Tallarida et al. (1989) Life Sci. 45:947-961 and Tallarida et al. (1997) Life Sci. 61:PL417-PL425. The isobologram is constructed by joining the ED50 of the ibuprofen with that of the nefopam in order to obtain the additivity line. The ED50 of the combination is determined by linear regression analysis of the dose-response curve and it is compared by at test with a theoretical additive ED50 obtained using the PharmToolsPro software.

For assay [2] the test system is unchanged. Particulars: oral route, cited from earlier work.

On to `CN1CCOC(c2ccccc2)c2ccccc2C1` (stereo not shown) [Nefopam, Nefopam hydrochloride], for which the 50% effective dose (ED50) in assay [1] came out at 2.4 ± 0.215 mg/kg. The “% variation of number of cramps” value is listed as −9% in assay [1] (nefopam 0.3 mg/kg s.c.); −25% in assay [1] (nefopam 1.0 mg/kg s.c.); −55% in assay [1] (nefopam 3.0 mg/kg s.c.); −81% in assay [1] (nefopam 10.0 mg/kg s.c.); −98% in assay [1] (nefopam 20.0 mg/kg s.c.). The “Number of cramps (mean ± sem)” value in assay [1] (nefopam 0.3 mg/kg s.c.) is listed as 33.6 ± 3.8; in assay [1] (nefopam 1.0 mg/kg s.c.), 28.0 ± 6.3; in assay [1] (nefopam 3.0 mg/kg s.c.) it was 16.7 ± 2.0; in assay [1] (nefopam 10.0 mg/kg s.c.) it was 7.1 ± 1.7; in assay [1] (nefopam 20.0 mg/kg s.c.), 0.6 ± 0.3.

For `CC(C)Cc1ccc(C(C)C(=O)O)cc1` (stereo not shown) [Ibuprofen, ibuprofen], the 50% effective dose (ED50) was 18.6 ± 2.4 mg/kg in assay [1] and 95 mg/kg in assay [2] (Jones et al. (2005)). Moreover, the “% variation of number of cramps” value is given as “+7%” in assay [1] (ibuprofen 1 mg/kg s.c.); “+14%” in assay [1] (ibuprofen 3 mg/kg s.c.); −29% in assay [1] (ibuprofen 10 mg/kg s.c.); −41% in assay [1] (ibuprofen 20 mg/kg s.c.); −68% in assay [1] (ibuprofen 30 mg/kg s.c.); −84% in assay [1] (ibuprofen 50 mg/kg s.c.). In addition, in assay [1] (ibuprofen 100 mg/kg s.c.), the “% variation of number of cramps” value was −84%. Moreover, the “Number of cramps (mean ± sem)” value in assay [1] (ibuprofen 1 mg/kg s.c.) was found to be 40.2 ± 3.2; in assay [1] (ibuprofen 3 mg/kg s.c.) it was 43.0 ± 6.6; in assay [1] (ibuprofen 10 mg/kg s.c.) it was 26.8 ± 3.9; in assay [1] (ibuprofen 20 mg/kg s.c.) it was 22.0 ± 2.0; in assay [1] (ibuprofen 30 mg/kg s.c.) it was 12.1 ± 2.7; in assay [1] (ibuprofen 50 mg/kg s.c.), 5.9 ± 1.3. In addition, the “Number of cramps (mean ± sem)” value in assay [1] (ibuprofen 100 mg/kg s.c.) was determined as 6.0 ± 1.4. For the same molecule, in assay [2] (Dolezal & Kusiak (2002)), the “dose from which antinociceptive activity is significant” value was at least 30 mg/kg.
